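Growth conditions: 96-well plates. Treatment: test compound, 48 hours, 5 concentrations. Analysis: linear interpolation between bracketing concentrations; unreached endpoints set to highest concentration. The concentration for 50% growth inhibition is given as GI50. TGI: total growth inhibition.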
What was measured:
Test in all cases: NCI tumour cell line growth inhibition, 48 h
[1] = test system: A549 NSCLC
[2] = test system: UO-31 renal
[3] = test system: RPMI-8226 leukemia
[4] = test system: OVCAR-8 ovarian
[5] = test system: MALME-3M melanoma
[6] = test system: SF-295 CNS
[7] = test system: CCRF-CEM leukemia
[8] = test system: PC-3 prostate
[9] = test system: UACC-257 melanoma
[10] = test system: HCC-2998 colon
[11] = test system: MDA-MB-231 breast
[12] = test system: COLO 205 colon
[13] = test system: HCT-15 colon
[14] = test system: NCI-H226 lung
[15] = test system: A498 renal
[16] = test system: TK-10 renal
[17] = test system: SK-MEL-5 melanoma
[18] = test system: OVCAR-4 ovarian
[19] = test system: M14 melanoma
[20] = test system: DU-145 prostate
[21] = test system: SNB-75 CNS
[22] = test system: HT29 colon
[23] = test system: NCI/ADR-RES ovarian
[24] = test system: U251 CNS
[25] = test system: T-47D breast
[26] = test system: IGROV1 ovarian
[27] = test system: NCI-H522 lung
[28] = test system: LOX IMVI melanoma
[29] = test system: MOLT-4 leukemia
[30] = test system: HCT-116 colon
[31] = test system: HL-60(TB) leukemia
[32] = test system: NCI-H460 lung
[33] = test system: RXF 393 renal
[34] = test system: NCI-H23 lung
[35] = test system: HOP-92 NSCLC
[36] = test system: UACC-62 melanoma
[37] = test system: SN12C renal
[38] = test system: K-562 leukemia
[39] = test system: BT-549 breast
[40] = test system: SF-539 CNS
[41] = test system: SK-MEL-28 melanoma
[42] = test system: SNB-19 CNS
[43] = test system: HOP-62 NSCLC
[44] = test system: OVCAR-3 ovarian
[45] = test system: SR leukemia
[46] = test system: SK-OV-3 ovarian
[47] = test system: ACHN renal
[48] = test system: CAKI-1 renal
[49] = test system: KM12 colon
[50] = test system: EKVX NSCLC
[51] = test system: MCF7 breast
[52] = test system: HS 578T breast
[53] = test system: SF-268 CNS
[54] = test system: SK-MEL-2 melanoma
[55] = test system: 786-0 renal
[56] = test system: MDA-MB-435
[57] = test system: SW-620 colon
[58] = test system: OVCAR-5 ovarian

With `COc1ccc(C(O)c2cc3c(N)c(C(=O)Nc4cccc(OC)c4)sc3nc2C)cc1` (centres undefined) the GI50 [1] was 5.46 µM, the TGI [1] was > 50 µM and the GI50 [2] was 0.838 µM. For the same compound, the TGI [2] was 1.72 µM, the GI50 [3] was 0.174 µM and the TGI [3] was 0.809 µM. The GI50 [4] was 1.57 µM, the TGI [4] was > 50 µM and the GI50 [5] was 1.91 µM. It also gave a TGI [5] of 28.9 µM, a GI50 [6] of 1.42 µM and a TGI [6] of 4.5 µM. It also gave a GI50 [7] of 1.31 µM, a TGI [7] of 4.64 µM and a GI50 [8] of 1.15 µM. For the same compound, the TGI [8] was 3.04 µM, the GI50 [9] was 1.74 µM and the TGI [9] was > 50 µM. It also gave a GI50 [10] of 0.871 µM, a TGI [10] of 1.63 µM and a GI50 [11] of 1.39 µM. The TGI [11] was 3.97 µM, the GI50 [12] was 1.75 µM and the TGI [12] was > 50 µM. It also gave a GI50 [13] of 1 µM, a TGI [13] of 2.51 µM and a GI50 [14] of 4.01 µM. For the same compound, the TGI [14] was 36.8 µM, the GI50 [15] was > 50 µM and the TGI [15] was > 50 µM. For the same compound, the GI50 [16] was 5.99 µM, the TGI [16] was > 50 µM and the GI50 [17] was 1.69 µM. The TGI [17] was 5.42 µM, the GI50 [18] was 2.17 µM and the TGI [18] was > 50 µM. It also gave a GI50 [19] of 1.28 µM, a TGI [19] of 4.65 µM and a GI50 [20] of 2.07 µM. For the same compound, the TGI [20] was > 50 µM, the GI50 [21] was 12.2 µM and the TGI [21] was > 50 µM. It also gave a GI50 [22] of 1.36 µM, a TGI [22] of 3.7 µM and a GI50 [23] of 1.38 µM. The TGI [23] was 3.96 µM, the GI50 [24] was 1.34 µM and the TGI [24] was 7.37 µM. The GI50 [25] was 3.83 µM, the TGI [25] was > 50 µM and the GI50 [26] was 1.17 µM. For the same compound, the TGI [26] was 3.46 µM, the GI50 [27] was 1.43 µM and the TGI [27] was 4.94 µM. It also gave a GI50 [28] of 0.879 µM, a TGI [28] of 1.64 µM and a GI50 [29] of 1.43 µM. For the same compound, the TGI [29] was 4.59 µM, the GI50 [30] was 0.242 µM and the TGI [30] was 0.953 µM. The GI50 [31] was 1.35 µM, the TGI [31] was > 50 µM and the GI50 [32] was 1.97 µM. The TGI [32] was > 50 µM, the GI50 [33] was 1.01 µM and the TGI [33] was 2.31 µM. The GI50 [34] was 1.2 µM, the TGI [34] was 3.29 µM and the GI50 [35] was > 50 µM. The TGI [35] was > 50 µM, the GI50 [36] was 1.16 µM and the TGI [36] was 3.07 µM. For the same compound, the GI50 [37] was 1.24 µM, the TGI [37] was 3.38 µM and the GI50 [38] was 1.2 µM. For the same compound, the TGI [38] was 7.2 µM, the GI50 [39] was 1.23 µM and the TGI [39] was 3.22 µM. For the same compound, the GI50 [40] was 1.26 µM, the TGI [40] was 3.03 µM and the GI50 [41] was 1.58 µM. For the same compound, the TGI [41] was 4.94 µM, the GI50 [42] was 1.99 µM and the TGI [42] was > 50 µM. For the same compound, the GI50 [43] was 1.94 µM, the TGI [43] was > 50 µM and the GI50 [44] was 1.26 µM. For the same compound, the TGI [44] was 3.23 µM, the GI50 [45] was 0.301 µM and the TGI [45] was 7.51 µM. The GI50 [46] was 11.5 µM, the TGI [46] was > 50 µM and the GI50 [47] was 1.21 µM. The TGI [47] was 3.15 µM, the GI50 [48] was 1.53 µM and the TGI [48] was 5.27 µM. It also gave a GI50 [49] of 1.03 µM, a TGI [49] of 2.41 µM and a GI50 [50] of 1.6 µM. For the same compound, the TGI [50] was > 50 µM, the GI50 [51] was 0.289 µM and the TGI [51] was > 50 µM. It also gave a GI50 [52] of 1.65 µM, a TGI [52] of 4.67 µM and a GI50 [53] of 1.77 µM. For the same compound, the TGI [53] was 37.9 µM, the GI50 [54] was 49.8 µM and the TGI [54] was > 50 µM. For the same compound, the GI50 [55] was 1.14 µM, the TGI [55] was 2.79 µM and the GI50 [56] was 1.11 µM. It also gave a TGI [56] of 2.18 µM.

`Oc1c(Cl)cc(Cl)c2ccc(Cn3cc(-c4cc(F)cc(F)c4)nn3)nc12` was tested, and the GI50 [1] was 18.8 µM, the TGI [1] was 38.4 µM and the GI50 [2] was 2.06 µM. For the same compound, the TGI [2] was 9.93 µM, the GI50 [3] was 2.19 µM and the TGI [3] was 6.36 µM. The GI50 [4] was 3.42 µM, the TGI [4] was 27.2 µM and the GI50 [5] was 1.84 µM. It also gave a TGI [5] of 3.74 µM, a GI50 [6] of 17.8 µM and a TGI [6] of 32.9 µM. The GI50 [7] was 0.832 µM, the TGI [7] was > 100 µM and the GI50 [8] was 5.26 µM. The TGI [8] was 18.8 µM, the GI50 [57] was 1.49 µM and the TGI [57] was 3.35 µM. For the same compound, the GI50 [9] was 1.76 µM, the TGI [9] was 4.83 µM and the GI50 [10] was 13.3 µM. For the same compound, the TGI [10] was 29.1 µM, the GI50 [11] was 2.71 µM and the TGI [11] was 8.65 µM. It also gave a GI50 [12] of 2.06 µM, a TGI [12] of 4.04 µM and a GI50 [13] of 2.21 µM. For the same compound, the TGI [13] was 5.42 µM, the GI50 [14] was 10 µM and the TGI [14] was 29 µM. For the same compound, the GI50 [15] was 5.78 µM, the TGI [15] was 19.6 µM and the GI50 [16] was 2.1 µM. It also gave a TGI [16] of 4.23 µM, a GI50 [17] of 4.1 µM and a TGI [17] of 14.9 µM. It also gave a GI50 [18] of 1.87 µM, a TGI [18] of 4.43 µM and a GI50 [19] of 2.02 µM. For the same compound, the TGI [19] was 4.92 µM, the GI50 [20] was 2.14 µM and the TGI [20] was 4.6 µM. It also gave a GI50 [21] of 2.07 µM, a TGI [21] of 11.8 µM and a GI50 [23] of 24.1 µM. It also gave a TGI [23] of 85.3 µM, a GI50 [24] of 7.38 µM and a TGI [24] of 21.2 µM. The GI50 [25] was 2.27 µM, the TGI [25] was 7.17 µM and the GI50 [26] was 1.82 µM. It also gave a TGI [26] of 4.18 µM, a GI50 [27] of 1.72 µM and a TGI [27] of 4.83 µM. The GI50 [28] was 1.31 µM, the TGI [28] was 2.68 µM and the GI50 [58] was 4.01 µM. For the same compound, the TGI [58] was 15.4 µM, the GI50 [30] was 1.61 µM and the TGI [30] was 3.53 µM. For the same compound, the GI50 [31] was 2.08 µM, the TGI [31] was 5.78 µM and the GI50 [32] was 18.8 µM. It also gave a TGI [32] of 35.8 µM, a GI50 [33] of 1.36 µM and a TGI [33] of 2.99 µM. For the same compound, the GI50 [34] was 3.5 µM, the TGI [34] was 12.8 µM and the GI50 [35] was 1.63 µM. It also gave a TGI [35] of 4.37 µM, a GI50 [36] of 3.39 µM and a TGI [36] of 14.4 µM. It also gave a GI50 [37] of 4.21 µM, a TGI [37] of 16.2 µM and a GI50 [38] of 1.09 µM. The TGI [38] was > 100 µM, the GI50 [39] was 2.51 µM and the TGI [39] was 9.49 µM. For the same compound, the GI50 [40] was 1.63 µM, the TGI [40] was 3.08 µM and the GI50 [41] was 2.01 µM. It also gave a TGI [41] of 4.18 µM, a GI50 [42] of 11.9 µM and a TGI [42] of 25.1 µM. The GI50 [43] was 17.4 µM, the TGI [43] was 34.9 µM and the GI50 [44] was 1.66 µM. The TGI [44] was 3.2 µM, the GI50 [45] was 2.87 µM and the TGI [45] was > 100 µM. For the same compound, the GI50 [46] was 17 µM, the TGI [46] was 31.9 µM and the GI50 [47] was 1.73 µM. For the same compound, the TGI [47] was 3.14 µM, the GI50 [48] was 1.78 µM and the TGI [48] was 4 µM. The GI50 [49] was 16.3 µM, the TGI [49] was 32.1 µM and the GI50 [50] was 11.7 µM. For the same compound, the TGI [50] was 25.5 µM, the GI50 [51] was 1.54 µM and the TGI [51] was 3.62 µM. The GI50 [52] was 3.22 µM, the TGI [52] was 20 µM and the GI50 [53] was 11.3 µM. The TGI [53] was 30.3 µM, the GI50 [54] was 5.19 µM and the TGI [54] was 20.2 µM. It also gave a GI50 [55] of 2.09 µM, a TGI [55] of 4.84 µM and a GI50 [56] of 2.8 µM. For the same compound, the TGI [56] was 8.47 µM.

From PubChem BioAssay (NCI)
